In PMC6835155, “Lessons from LIMK1 enzymology and their impact on inhibitor design” (Biochemical Journal, 2019):
Where a name gives a salt, the structure may show the parent alone. Read-outs that look alike come from different tables or passages of the source.

Key:
LIMK1KD = molecular target: T1, LIMK1KD (Homo sapiens, UniProt P53667); test: Differential (dynamic) scanning fluorimetry (DSF) assay, LIMK1KD; format: binding; conditions: 2 µM LIMK1KD, compound 10 µM, single shot; for ΔTm at 10 µM: read-out: TM Shift LIMK1 (K)
T1 construct: His6 (N, cleaved yes); made in house; host or cells: baculovirus; Sf9 for virus, TriEx insect cells for expression
T1 sequence (P53667 330-637): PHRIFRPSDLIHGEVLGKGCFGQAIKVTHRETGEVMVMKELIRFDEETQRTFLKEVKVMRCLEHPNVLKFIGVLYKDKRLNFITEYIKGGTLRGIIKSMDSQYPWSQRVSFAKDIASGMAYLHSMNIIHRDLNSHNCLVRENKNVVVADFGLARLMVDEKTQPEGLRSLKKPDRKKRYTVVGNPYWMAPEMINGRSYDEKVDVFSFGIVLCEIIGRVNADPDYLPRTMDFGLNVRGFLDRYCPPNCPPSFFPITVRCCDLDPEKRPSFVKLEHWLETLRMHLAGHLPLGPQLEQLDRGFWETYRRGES

LIMK2KD = molecular target: T2, LIMK2KD (Homo sapiens, UniProt P53671); test: Differential (dynamic) scanning fluorimetry (DSF) assay, LIMK2KD; format: binding
T2 construct: The cDNA coding for LIMK2 residues 330 to 632 was PCR amplified; His6 (N, cleaved yes); made in house; host or cells: baculovirus; Sf9 for virus, TriEx insect cells for expression
T2 sequence (P53671 330-632): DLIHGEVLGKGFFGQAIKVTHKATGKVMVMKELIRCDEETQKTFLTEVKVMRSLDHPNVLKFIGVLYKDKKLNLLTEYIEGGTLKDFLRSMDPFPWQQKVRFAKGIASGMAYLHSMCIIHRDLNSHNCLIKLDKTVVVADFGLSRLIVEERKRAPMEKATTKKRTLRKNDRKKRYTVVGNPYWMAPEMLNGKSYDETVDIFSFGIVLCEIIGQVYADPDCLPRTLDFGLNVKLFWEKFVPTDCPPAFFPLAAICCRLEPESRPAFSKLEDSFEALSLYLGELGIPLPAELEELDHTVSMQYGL

[1] = LIMK2KD, compound 10 µM, single shot, read-out: TM Shift LIMK2 (K)
[2] = LIMK2KD, compound 10 µM, single shot
[3] = LIMK2KD, compound 10 µM, single shot, 10 µM

| ΔTm at 10 µM (LIMK1KD) | ΔTm at 10 µM (LIMK2KD; [1]) | TM Shift LIMK1 (K) (LIMK1KD) | SMILES | other results |
| --- | --- | --- | --- | --- |
| -1.4 °C | 1.3 °C |  | CC(C)(C)c1cc(NC(=O)Nc2ccc(-c3cn4c(n3)sc3cc(OCCN5CCOCC5)ccc34)cc2)no1 [Quizartinib (AC220), Quizartinib] |  |
|  |  | 0.1 K | COc1ccc(F)c(F)c1C(=O)c1cnc(NC2CCN(S(C)(=O)=O)CC2)nc1N [R547] | TM Shift LIMK2 (K) (LIMK2KD; [2]): -0.2 K |
| 1.1 °C | 5.1 °C |  | Cn1c(Nc2ccc(C(F)(F)F)cc2)nc2cc(Oc3ccnc(-c4ncc(C(F)(F)F)[nH]4)c3)ccc21 [RAF265 (CHIR-265)] |  |
|  |  | 1.4 K | O=C(NCc1cccc(O)c1)Nc1nc(-c2ccncc2)cs1 [RKI-1447] | TM Shift LIMK2 (K) (LIMK2KD; [2]): 0.8 K |
|  |  | -1.1 K | Cc1cnc(NC(=O)Nc2cc(Br)c(C)cc2OC[C@@H]2CNCCO2)cn1 [Rabusertib] | TM Shift LIMK2 (K) (LIMK2KD; [3]): 0.2 K |
| 3.2 °C | 3.1 °C |  | CC(C)(C)Cn1c(N)nc2ccc(-c3[nH]c(C(C)(C)C)nc3-c3ccc(F)cc3)nc21 [Ralimetinib] |  |
| -0.1 °C | 0 °C |  | CO[C@H]1C[C@@H]2CC[C@@H](C)[C@@](O)(O2)C(=O)C(=O)N2CCCC[C@H]2C(=O)O[C@H]([C@H](C)C[C@@H]2CC[C@@H](O)[C@H](OC)C2)CC(=O)[C@H](C)/C=C(\C)[C@@H](O)[C@@H](OC)C(=O)[C@H](C)C[C@H](C)/C=C/C=C/C=C/1C [Rapamycin (Sirolimus), Rapamycin] |  |
| -1 °C | 1.1 °C |  | COc1cc(F)c(F)c(Nc2ccc(I)cc2F)c1NS(=O)(=O)C1(C[C@H](O)CO)CC1 [Refametinib] |  |
| 0 °C | 0.7 °C |  | CNC(=O)c1cc(Oc2ccc(NC(=O)Nc3ccc(Cl)c(C(F)(F)F)c3)c(F)c2)ccn1 [Regorafenib (BAY 73-4506), Regorafenib] |  |
| 0.1 °C | 0.2 °C |  | CO[C@H]1C[C@@H]2CC[C@@H](C)[C@@](O)(O2)C(=O)C(=O)N2CCCC[C@H]2C(=O)O[C@H]([C@H](C)C[C@@H]2CC[C@@H](OP(C)(C)=O)[C@H](OC)C2)CC(=O)[C@H](C)/C=C(\C)[C@@H](O)[C@@H](OC)C(=O)[C@H](C)C[C@H](C)/C=C/C=C/C=C/1C [Ridaforolimus (Deforolimus, MK-8669), Ridaforolimus] |  |
| 2.7 °C | 1.6 °C |  | COc1cc(OC)c(/C=C/S(=O)(=O)Cc2ccc(OC)c(NCC(=O)O)c2)c(OC)c1 [Rigosertib (ON-01910), Rigosertib] |  |
|  |  | 1.6 K | CS(=O)(=O)O.Cn1cc(C2=C(c3cn(CCCSC(=N)N)c4ccccc34)C(=O)NC2=O)c2ccccc21 [Ro 31-8220 Mesylate] | TM Shift LIMK2 (K) (LIMK2KD; [2]): 1.2 K |
| 1 °C | 0.4 °C |  | CN(C)C[C@@H]1CCn2cc(c3ccccc32)C2=C(C(=O)NC2=O)c2cn(c3ccccc23)CCO1 [Ruboxistaurin] |  |
| 1.6 °C | 2.6 °C |  | N#CC[C@H](C1CCCC1)n1cc(-c2ncnc3[nH]ccc23)cn1 [Ruxolitinib (INCB018424), Ruxolitinib] |  |
| 0.9 °C | -0.7 °C |  | N#CC[C@@H](C1CCCC1)n1cc(-c2ncnc3[nH]ccc23)cn1 [S-Ruxolitinib (INCB018424), S-Ruxolitinib] |  |
|  |  | 0.1 K | CCn1c(N)c(C(=O)NC)c(=O)c2ccc(C#C[C@@](C)(O)COC)nc21 [SAR131675] | TM Shift LIMK2 (K) (LIMK2KD; [2]): 2.9 K |
|  |  | 1.0 K | CCn1c(=O)c(-c2cc[nH]n2)cc2c(C)nc(N)nc21 [SAR245409 (XL765)] | TM Shift LIMK2 (K) (LIMK2KD; [3]): 6.6 K |
|  |  | 0.7 K | Oc1ccc(-c2nc(-c3ccc(F)cc3)c(-c3ccncc3)[nH]2)cc1 [SB202190 (FHPI)] | TM Shift LIMK2 (K) (LIMK2KD; [2]): 0.2 K |

| ΔTm at 10 µM (LIMK1KD) | ΔTm at 10 µM (LIMK2KD; [1]) | TM Shift LIMK1 (K) (LIMK1KD) | SMILES | other results |
| --- | --- | --- | --- | --- |
| 0.7 °C | 1.3 °C |  | Cn1cc(C2=C(c3ccc(Cl)cc3Cl)C(=O)NC2=O)c2ccccc21 [SB216763] |  |
|  |  | 1.7 K | O=C1NC(=O)C(c2ccccc2[N+](=O)[O-])=C1Nc1ccc(O)c(Cl)c1 [SB415286] | TM Shift LIMK2 (K) (LIMK2KD; [2]): 0.9 K |
| 0.1 °C | 1 °C |  | CN(C)CCOc1ccc(-c2nc(-c3ccncc3)c(-c3ccc4c(c3)CC/C4=N\O)[nH]2)cc1 [SB590885] |  |
| 0.3 °C | 0.1 °C |  | O=C(Nc1ccc2[nH]nc(-c3ccncc3)c2c1)[C@@H]1CCN(CC(=O)N2CCN(c3ccc(-c4ncccn4)cc3)CC2)C1 [SCH772984] |  |
|  |  | 1.7 K | CN1CCC(CNc2ccc3ncc(-c4cccc(OC(F)(F)F)c4)n3n2)CC1 [SGI-1776 free base] | TM Shift LIMK2 (K) (LIMK2KD; [2]): 1.4 K |
| -0.4 °C | 0.2 °C |  | Cn1cc(-c2ccc3nnc(Sc4ccc5ncccc5c4)n3n2)cn1 [SGX-523] |  |
|  |  | -0.4 K | Oc1ccc(Nc2nc(-c3ccc(Cl)cc3)cs2)cc1 [SKI II] | TM Shift LIMK2 (K) (LIMK2KD; [2]): 1.4 K |
|  |  | 0.7 K | N#C/C(=C(/N)Sc1ccc(N)cc1)c1ccccc1C(F)(F)F [SL-327] | TM Shift LIMK2 (K) (LIMK2KD; [2]): 0.7 K |
|  |  | -0.2 K | O=C1NC(=O)/C(=C/c2cccc(C(F)(F)F)c2)S1 [SMI-4a] | TM Shift LIMK2 (K) (LIMK2KD; [2]): -0.4 K |
| 0.1 °C | -0.3 °C |  | CC(C)(C)c1cnc(CSc2cnc(NC(=O)C3CCNCC3)s2)o1 [SNS-032 (BMS-387032)] |  |
| -0.5 °C | 0.8 °C |  | O=C(Nc1cccc(Cl)c1)Nc1ncc(CCNc2ncnc3ccsc23)s1 [SNS-314 Mesylate] |  |
| 1 °C | 2.1 °C |  | Oc1c2ccccc2c2c3c(cccc13)N=N2 [SP600125] |  |
|  |  | -0.6 K | COc1c(C)c(C(=O)c2ccc(N)c(C(=O)[O-])c2)n2ccccc12.[Na+] [SSR128129E] | TM Shift LIMK2 (K) (LIMK2KD; [2]): 2.4 K |
| 1.4 °C | -0.2 °C |  | Cc1[nH]c(/C=C2\C(=O)Nc3ccc(S(=O)(=O)N(C)c4cccc(Cl)c4)cc32)c(C)c1C(=O)N1CCN(C)CC1 [SU11274] |  |
| 1.2 °C | 0.8 °C |  | CN1CCN(CCOc2cc(OC3CCOCC3)c3c(Nc4c(Cl)ccc5c4OCO5)ncnc3c2)CC1 [Saracatinib (AZD0530), Saracatinib] |  |
| 0.1 °C | 0.6 °C |  | Cn1cnc2c(F)c(Nc3ccc(Br)cc3Cl)c(C(=O)NOCCO)cc21 [Selumetinib (AZD6244), Selumetinib] |  |
| -0.5 °C | -0.6 °C |  | O=C1c2ccc(Nc3ccc(F)cc3F)cc2CCc2ccc(OC[C@H](O)CO)cc21 [Skepinone-L] |  |
| 0.6 °C | 1.2 °C |  | CN1CCN(c2nc(C3=C(c4c[nH]c5ccccc45)C(=O)NC3=O)c3ccccc3n2)CC1 [Sotrastaurin] |  |

| SMILES | ΔTm at 10 µM (LIMK1KD) | ΔTm at 10 µM (LIMK2KD; [1]) | TM Shift LIMK1 (K) (LIMK1KD) | other results |
| --- | --- | --- | --- | --- |
| C[S+]([O-])c1ccc(-c2nc(-c3ccncc3)c(-c3ccc(F)cc3)[nH]2)cc1 (stereo not shown) [SB203580] | 1.3 °C | 3.3 °C |  |  |
| CC[C@H](CO)Nc1nc(NCc2ccccc2)c2ncn(C(C)C)c2n1 [Seliciclib] |  |  | 0.1 K | TM Shift LIMK1 (K) (LIMK1KD; listed as Roscovitine (Seliciclib,CYC202)): -0.4 K; TM Shift LIMK2 (K) (LIMK2KD; [3]): 0.0 K; TM Shift LIMK2 (K) (LIMK2KD; LIMK2KD, compound 10 µM, single shot, listed as Roscovitine (Seliciclib,CYC202), 10 µM): -1.3 K |
| C=CCN(/C=C1/C(=O)O[C@H](COC)[C@@]2(C)C1=C(O)C(=O)C1=C2[C@H](OC(C)=O)C[C@]2(C)C(=O)CC[C@@H]12)CC=C [Sonolisib] | 0.7 °C | 0.6 °C |  |  |
| CNC(=O)c1cc(Oc2ccc(NC(=O)Nc3ccc(Cl)c(C(F)(F)F)c3)cc2)ccn1 [Sorafenib Tosylate] |  |  | 1.7 K | ΔTm at 10 µM (LIMK2KD; read-out: TM Shift LIMK2 (K), LIMK2KD, compound 10 µM, single shot): 1.5 °C |
